These results are taken from patent US20240408033A1, “CELL-DERIVED NANOVESICLES FOR IN VIVO TRANSPORT AND DELIVERY OF THERAPEUTIC MATERIALS” (The Board of Trustees of the Leland Stanford Junior …, priority 2021, published 2024).

The subject of the assay is GL-26 GBM cells. Put plainly: PI staining-based apoptosis FACS analysis, GL-26 cells. The note with it: TMZ at 250 μM, alone or with mpEVs (50 pmol). (In flow cytometry, cells or beads pass a laser one at a time.)

Text: We evaluated the therapeutic potential of miRNA-loaded mpEVs (50 pmol) in GL-26 cells in combination with TMZ and quantified the chemosensitizing effects of the miRNA-loaded mpEVs using PI staining-based FACS analysis (FIG. 13).
To investigate the chemosensitizing effect of miRNAs-loaded mpEVs in the absence and presence of TMZ at different concentrations, we seeded the U87 glioma cells at a density of 1×10^5 cells per well in 12-well plates. Next, we treated the cells with mpEVs from control and CXCR4-NSCs with and without loaded miRNAs. On the following day, we treated the cells with TMZ at different concentrations (0 μM, 250 μM, and 500 μM) for each kind of EV. At 24 h after TMZ administration, we collected the cells and fixed in ice cold 70% ethanol at −20° C. for 30 min. We then washed the fixed cells once with 2 ml of PBS and stained with PI (15 nM) in the presence of RNase A (10 mg/ml) and 0.01% Triton-X100 (Life Technologies, Grand Island, NY, USA). […] Likewise, the chemosensitizing effect of miRNA loaded mpEVs for TMZ therapy was also investigated against GL26 cells by using a similar procedure.

Regarding `Cn1nnc2c(C(N)=O)ncn2c1=O` [TMZ, temozolomide], the apoptotic cells is on record as 13.9%.
